Data: patent US20020174455A1, “Sustained totipotent culture of selected monocot genera” (priority 2001, published 2002)

Legend:
A. donax explants = assay: Phosphinothricin selection of explants with or without Agrobacterium tumefaciens cocultivation (Example 3); type: cell-based, Arundo donax L.; conditions: 10 mg/l
Description: Cross-sectional segment of immature A. donax inflorescence were prepared and cultivated as described in Example 2. The totipotent tissue was cocultivated with Agrobacterium tumefaciens carrying plasmid pMSF3022, which carried the bar gene for positive selection in plant cells. The gene confers resistance to the antibiotic/herbicide phosphinothricin.
Cocultivation was carried out in 6 ml. of liquid primary culture medium for four days in the dark at room temperature. Explants were then rinsed with liquid medium and placed on solid selective and non-selective control medium containing the antibiotic/herbicide phosphinothricine at 10 mg/l. All medium contained tidarcillin at 400 mg/l to eliminate residual A. tumefaciens. Controls includes explants incubated without A. tumefaciens. […] This can be contrasted with control explants (which were not contacted with A. tumefaciens) that were killed by 10 mg/l of phosphinothricin (FIG. 3A). Also shown are control explants that have developed callus in the absence of phosphinothricin (FIG. 3B), and cocultivated explants that have developed callus in the absence of phosphinothricin (FIG. 3D).

[1] = system: cloned A. donax plants (roots); assay: Trichloroethene challenge of cloned plants in phytoreactor (Example 4); type: in vivo, Arundo donax L.; conditions: 0.25 mM in hydroponic solution; after a recovery period of 3 to 4 weeks
Description: Sustained titopotent cultures of A donax were grown as described in Example 2, and cloned plants derived from the titopotent tissues were established in a standard liquid hydroponic solution in plastic tubs (Shown in FIG. 4 A). In one phytoreactor tub, trichloroethene (trichloroethylene) was added to a concentration of 0.25 mM. This was believed to be a high concentration of the organic material, because the allowable EPA concentration is 0.005 mg/l.

SMILES | effect on control explants (not contacted with A. tumefaciens) (A. donax explants) | state of roots of challenged plants [1]
CP(=O)(O)CC[C@H](N)C(=O)O [phosphinothricin] | killed | –
ClC=C(Cl)Cl [trichloroethene] | – | fully recovered
